Results reported in US4798843A, “2-mercaproimidazole dopamine-β-hydroxylase inhibitors” (SmithKline Beckman Corporation, priority 1987, dated 1989).

Legend:
DBH [1] = biological target: T1, DBH (Homo sapiens, UniProt P09172); details: cited from earlier work
T1 sequence (P09172 1-617): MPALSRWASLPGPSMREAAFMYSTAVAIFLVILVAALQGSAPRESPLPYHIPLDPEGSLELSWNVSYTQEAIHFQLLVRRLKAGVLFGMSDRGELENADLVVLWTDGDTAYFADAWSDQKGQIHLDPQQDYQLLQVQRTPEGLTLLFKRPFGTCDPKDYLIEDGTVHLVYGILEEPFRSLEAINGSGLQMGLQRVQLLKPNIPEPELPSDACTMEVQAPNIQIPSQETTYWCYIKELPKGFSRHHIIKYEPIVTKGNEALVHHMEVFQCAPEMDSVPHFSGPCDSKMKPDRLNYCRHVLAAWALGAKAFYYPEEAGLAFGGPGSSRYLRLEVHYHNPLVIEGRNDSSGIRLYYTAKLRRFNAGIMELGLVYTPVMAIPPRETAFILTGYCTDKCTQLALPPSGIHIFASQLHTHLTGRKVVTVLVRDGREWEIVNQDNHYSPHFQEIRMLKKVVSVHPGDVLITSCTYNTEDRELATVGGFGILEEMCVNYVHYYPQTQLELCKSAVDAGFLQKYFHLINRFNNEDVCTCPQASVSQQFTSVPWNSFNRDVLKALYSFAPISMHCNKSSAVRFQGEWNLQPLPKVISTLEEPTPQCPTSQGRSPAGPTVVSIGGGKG

DBH [2] = biological target: T2, DBH (Bos taurus, UniProt P15101); experiment: in vitro DBH inhibition, conversion of tyramine to octopamine in the presence of DBH (spectrophotometric at 330 nm); assay type: biochemical; details: for DBH inhibition: @ 10^-4 (molar concentration); for IC50: molar concentration of compound at which DBH activity was halved
T2 sequence (P15101 1-610): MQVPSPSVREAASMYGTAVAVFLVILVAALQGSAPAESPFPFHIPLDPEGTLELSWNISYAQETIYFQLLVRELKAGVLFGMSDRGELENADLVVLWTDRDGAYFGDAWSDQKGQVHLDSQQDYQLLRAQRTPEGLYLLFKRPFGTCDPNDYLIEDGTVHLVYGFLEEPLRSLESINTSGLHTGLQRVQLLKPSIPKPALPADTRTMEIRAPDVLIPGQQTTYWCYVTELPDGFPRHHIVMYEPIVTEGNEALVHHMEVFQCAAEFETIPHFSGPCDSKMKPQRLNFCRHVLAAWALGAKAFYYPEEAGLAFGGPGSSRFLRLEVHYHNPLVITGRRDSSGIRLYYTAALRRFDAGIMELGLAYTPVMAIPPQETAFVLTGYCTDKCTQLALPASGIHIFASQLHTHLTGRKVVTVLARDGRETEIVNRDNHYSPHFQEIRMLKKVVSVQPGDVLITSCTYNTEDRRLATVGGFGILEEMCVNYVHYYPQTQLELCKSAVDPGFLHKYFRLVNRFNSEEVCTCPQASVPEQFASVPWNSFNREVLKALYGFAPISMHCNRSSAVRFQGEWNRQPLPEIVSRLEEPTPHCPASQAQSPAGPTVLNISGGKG
Description: Listed in Table I are Formula II compounds that were tested for in vitro DBH inhibition by a standard procedure for assaying conversion of tyramine to octopamine in the presence of DBH. J. J. Pisano, et al., Biochim. Biophys. Acta, 43, 566-568 (1960). Octopamine was assayed following sodium periodate oxidation to p-hydroxybenzaldehyde by measuring spectrophotometric absorbance at 330 nm. In Table I, inhibition is given in molar concentration of compound at which DBH activity was halved (IC50). Fusaric acid, by this test has an IC50 of 8×10^-7 M.

[3] = Teresawa et al.; cited from earlier work
[4] = mean arterial blood pressure in spontaneously hypertensive rats; assay type: in vivo; details: 50 mg/kg intraperitoneally
Description: Further, spontaneously hypertensive rats were treated with 5-benzyl-2-mercaptoimidazole at a dose of 50 mg/kg intraperitoneally, and mean arterial blood pressure was monitored for 260 minutes using indwelling cannulae in the tail arteries. […] The maximal blood pressure reduction was approximately 25 mmHg.

[5] = Ehrreich et al.; cited from earlier work

## NOCc1ccccc1 [Benzyloxyamine]
DBH [1]
  DBH inhibition (in words): apparently act as competitive inhibitors

## COc1ccc(CCc2cnc(S)[nH]2)cc1 [5-(2-(4-Methoxyphenyl)ethyl)-2-mercaptoimidazole]
DBH [2]
  DBH inhibition: 8.4%

## CCCCc1ccc(C(=O)O)nc1 [Fusaric acid]
[3]
  hepatotoxicity: hepatotoxic

## COc1ccc(Cc2cnc(S)[nH]2)cc1 [5-(4-Methoxybenzyl)-2-mercaptoimidazole]
DBH [2]
  DBH inhibition: 36%

## O=C(O)c1ccc(CCCCCl)cn1 [5 (4 chlorobutyl) picolinic acid]
DBH [1]
  DBH inhibition (in words): inhibit DBH

## phenylpicolinic acid
DBH [1]; Runti et al.
  DBH inhibitory activity relative to fusaric acid: twice the inhibitory activity of fusaric acid

## Sc1nc(-c2ccccc2)c[nH]1 [5-Phenyl-2-mercaptoimidazole]
DBH [2]
  IC50: 5500 µM

## Oc1ccc(CCc2cnc(S)[nH]2)cc1 [5-(2-(4-Hydroxyphenyl)ethyl)-2-mercaptoimidazole]
DBH [2]
  IC50: 400 µM

## Oc1ccc(CCCCc2cnc(S)[nH]2)cc1 [5-(4-(4-Hydroxyphenyl)butyl)-2-mercaptoimidazole]
DBH [2]
  DBH inhibition: 24%

## COc1ccc(CCCc2cnc(S)[nH]2)cc1 [5-(3-(4-Methoxyphenyl)propyl)-2-mercaptoimidazole]
DBH [2]
  DBH inhibition: 39%

## CN(C)C(=S)SCc1ccc(C(=O)O)nc1 [5-(dimethyldithiocarbamoylmethyl)picolinic acid]
DBH [1]
  DBH inhibition (in words): DBH inhibitors

## NNCc1ccccc1 [benzylhydrazine]
DBH [1]
  DBH inhibition (in words): apparently act as competitive inhibitors

## Sc1ncc(CCCCc2ccccc2)[nH]1 [5-(4-Phenylbutyl)-2-mercaptoimidazole]
DBH [2]
  IC50: 100 µM

## Sc1ncc(CCc2ccccc2)[nH]1 [5-(2-Phenylethyl)-2-mercaptoimidazole]
DBH [2]
  IC50: 17 µM

## COc1ccc(CCCCc2cnc(S)[nH]2)cc1 [5-(4-(4-Methoxyphenyl)butyl)-2-mercaptoimidazole]
DBH [2]
  IC50: 100 µM

## Sc1ncc(Cc2ccccc2)[nH]1 [5-benzyl-2-mercaptoimidazole]
[4]; indwelling cannulae in tail arteries
  time to significant blood pressure reductions vs vehicle-treated controls: ≤ 30 min
[4]; monitored for 260 minutes
  maximal blood pressure reduction: approximately 25 mmHg
  time of lowest blood pressure: exhibited their lowest blood pressures when monitoring was discontinued

## Sc1ncc(-c2ccc(Cl)cc2)[nH]1 [5-(4-Chlorophenyl)-2-mercaptoimidazole]
DBH [2]
  IC50: 100 µM

## O=C(O)c1ccc(CCC(Br)CBr)cn1 (centres unmarked) [5-(3,4-dibromobutyl)picolinic acid]
DBH [1]
  DBH inhibition (in words): DBH inhibitors

## Oc1ccc(CCCc2cnc(S)[nH]2)cc1 [5-(3-(4-Hydroxyphenyl)propyl)-2-mercaptoimidazole]
DBH [2]
  DBH inhibition: 29%

## NCCc1ccc(O)c(O)c1 [DA, dopamine]
[5]
  antihypertensive or vasodilator activity: selective vasodilator activity at certain concentrations

## COc1ccc(-c2cnc(S)[nH]2)cc1 [5-(4-Methoxyphenyl)-2-mercaptoimidazole]
DBH [2]
  DBH inhibition: 38%

## CCCCc1ccc(C(N)=O)nc1 [Bupicomide, 5-(n-butyl)picolinamine]
DBH [1]
  DBH inhibition (in words): DBH inhibitor
[5]
  antihypertensive or vasodilator activity: has antihypertensive activity

## Sc1ncc(CCCc2ccccc2)[nH]1 [5-(3-Phenylpropyl)-2-mercaptoimidazole]
DBH [2]
  IC50: 10 µM
